Measured values reported in BindingDB's records for doi:10.1016/0960-894X(95)00174-R (1995).

Legend:
[1] = target: Platelet-activating factor receptor (Oryctolagus cuniculus); assay: In vitro inhibitory activity against PAF-induced aggregation of rabbit platelets
[2] = target: Platelet-activating factor receptor (Oryctolagus cuniculus); assay: In vitro ability to displace [3H]PAF from PAF receptor in rabbit platelet membranes

Structure (SMILES)	IC50 [1] [nM]	Ki [2] [nM]
CCCCCCCCCCCCCCCCCCNC(=O)OC[C@H]1C[C@H](COC(=O)N(Cc2cccc[n+]2CC)C(C)=O)S1 [2-{[Acetyl-((2R,4R)-4-octadecylcarbamoyloxymethyl-thietan-2-ylmethoxycarbonyl)-amino]-methyl}-1-ethyl-pyridinium; chloride]	57	4.3
CCCCCCCCCCCCCCCCOC[C@@H]1C[C@@H](COC(=O)N(Cc2cccc[n+]2CC)C(C)=O)O1 [2-{[Acetyl-((2S,4S)-4-hexadecyloxymethyl-oxetan-2-ylmethoxycarbonyl)-amino]-methyl}-1-ethyl-pyridinium; iodide]	57	15
CCCCCCCCCCCCCCCCCCNC(=O)OC[C@H]1C[C@H](COC(=O)N(Cc2cccc[n+]2CC)C(C)=O)C1 [2-{[Acetyl-(3-octadecylcarbamoyloxymethyl-cyclobutylmethoxycarbonyl)-amino]-methyl}-1-ethyl-pyridinium; iodide]	–	4.3
CCCCCCCCCCCCCCCCOC[C@H]1C[C@H](COC(=O)N(Cc2cccc[n+]2CC)C(C)=O)S1 [2-{[Acetyl-((2R,4R)-4-hexadecyloxymethyl-thietan-2-ylmethoxycarbonyl)-amino]-methyl}-1-ethyl-pyridinium; chloride]	52	20
CCCCCCCCCCCCCCCCCCNC(=O)OC[C@H]1C[C@H](COC(=O)N(Cc2cccc[n+]2CC)C(C)=O)N1C(C)=O [2-{[Acetyl-((2R,4R)-1-acetyl-4-octadecylcarbamoyloxymethyl-azetidin-2-ylmethoxycarbonyl)-amino]-methyl}-1-ethyl-pyridinium; chloride]	–	35
CCCCCCCCCCCCCCCCCCNC(=O)OC[C@H]1C[C@@H](COC(=O)N(Cc2cccc[n+]2CC)C(C)=O)S1 [2-{[Acetyl-((2S,4R)-4-octadecylcarbamoyloxymethyl-thietan-2-ylmethoxycarbonyl)-amino]-methyl}-1-ethyl-pyridinium; chloride]	61	9.8

Continued by falling Ki [2], values first:

IC50 [1] [nM]	Ki [2] [nM]	Structure (SMILES)
84	34	CCCCCCCCCCCCCCCCCCNC(=O)OC[C@H]1C[C@H](COC(=O)N(Cc2cccc[n+]2CC)C(=O)c2ccc(OC)cc2)S1 [1-Ethyl-2-{[(4-methoxy-benzoyl)-(4-octadecylcarbamoyloxymethyl-thietan-2-ylmethoxycarbonyl)-amino]-methyl}-pyridinium; chloride]
95	21	CCCCCCCCCCCCCCCCOC[C@H]1C[C@@H](COC(=O)N(Cc2cccc[n+]2CC)C(C)=O)O1 [2-{[Acetyl-((2S,4R)-4-hexadecyloxymethyl-oxetan-2-ylmethoxycarbonyl)-amino]-methyl}-1-ethyl-pyridinium; iodide]
–	9.8	CCCCCCCCCCCCCCCCNC(=O)OC[C@@H]1C[C@@H](COC(=O)N(Cc2cccc[n+]2CC)C(C)=O)S1 [2-{[Acetyl-((2S,4S)-4-hexadecylcarbamoyloxymethyl-thietan-2-ylmethoxycarbonyl)-amino]-methyl}-1-ethyl-pyridinium; chloride]
